Data on two molecules can be found in article PMC9254122, “Structural control of self-assembled peptide nanostructures to develop peptide vesicles for photodynamic therapy of cancer” (Materials Today Bio, 2022).

One series relates to SCC7 tumor-bearing mice. The experiment in a line: In vivo antitumor (photodynamic) efficacy. More on the design: species or system mouse. Particulars: end of therapy (14 days). The protocol:
The SCC7 tumor-bearing mouse models were prepared similarly to the in vivo imaging experiment, and each sample was prepared in the same way as in the in vivo IVIS imaging experiments. The samples were intravenously injected into the mice when the tumor volume reached approximately 50 mm^3. Three hours postinjection of the samples, NIR laser (671 nm) irradiation was administered to the tumor site with a power of 0.53 W/cm^2 for 15 min, and the same sample injection and NIR irradiation procedures were repeated at the next day. The tumor volume and body weight were recorded every two days. At the end of the therapy, major organs and tumors were dissected for histological analysis. They were fixed, sliced, stained with haematoxylin and eosin (H&E), and observed with a microscope (AxioImager A1, Zeiss, Germany).

Series [1] has as its system SCC7 cells. The series can be described thus: In vitro cellular uptake, CLSM and flow cytometry. The conditions noted are these: 4 h treatment, flow cytometry of Pa fluorescence. It counts as cell-based. The protocol: Cellular uptake of materials in SCC7 cells was analyzed based on the intrinsic fluorescence of Pa via CLSM (LSM700, Carl Zeiss, Germany) and flow cytometry (FACS Canto II, BD Biosciences, Bedford, MA, USA). SCC7 cells were seeded in 24-well plates at a density of 5 × 10^4 and incubated overnight. Then, 200 μL of the sample in an appropriate solution was added to 800 μL of complete medium for each well. The cells were treated with the samples for 4 h followed by the removal of the sample solution and the washing step. For cell imaging, nuclei were also stained with Hoechst 33,342.
(A flow cytometer gives signals particle by particle.)

The nature of series [2]: Quantification of singlet oxygen with Singlet Oxygen Sensor Green (SOSG). Particulars: RPMI 1640 medium with 10% foetal bovine serum, IR laser irradiation. The protocol:
Fig. 4 Nonspecific aggregation of peptidesomes under physiological conditions. (a) PDT effect in SCC7 cells. (b) Quantification of singlet oxygen with Singlet Oxygen Sensor Green (SOSG). The samples were dissolved in RPMI 1640 medium containing 10% foetal bovine serum, and IR laser irradiation was performed for the indicated times. (c) AFM image of the peptidesome←Pa in RPMI 1640 medium (without the serum). R6:RGD2 = 1:9.

For series [3] the following is noted: stated without reference; cited from earlier work. The text has this: As stated in Lipinski's rule of five, most small molecule drugs are lipophilic overall. Pheophorbide a (Pa), a small molecule drug used in this study, is also hydrophobic with a low water solubility of approximately 0.014 g/L. Pa is a porphyrin derivative of plant chlorophyll and has been used as a photosensitizer for photodynamic therapy (PDT). For noncovalent drug loading in R6 peptidesome, R6 and Pa were mixed in DW, and the solution was sonicated vigorously. After this drug loading process, the R6 peptidesomes underwent a morphological transformation into elongated supe ...

In series [4] the test system is SCC7 cells. The experiment in a line: Photodynamic killing of cancer cells (PDT effect), MTT assay. The conditions noted are these: 24 h treatment, IR laser 671 nm at 1.59 J/cm^2, peptidesome fabricated in DW. The series is classed as cell-based. The method, then: Having controlled the nano- and biostructural properties of the peptidesomes in terms of intracellular delivery efficiency and cytotoxicity, we then evaluated their tumoricidal photodynamic effects in tissue culture. Squamous cell carcinoma 7 (SCC7) cells were treated with free Pa or the peptidesome←Pa for 24 h, followed by infrared (IR) laser irradiation (671 nm) at 1.59 J/cm^2. Cytotoxicity as a measure of the photodynamic killing of cancer cells was determined using the MTT assay. […] To probe the reason behind this negative result, the amount of single oxygen (SO) generated was quantified after the incubation of both groups in cell culture medium (with serum). The amount of SO was far higher for free Pa than for peptidesome←Pa, which accounts for the results of the PDT assay (Fig. 4b). It has been shown that the aggregation of porphyrin derivatives reduced SO generation and negatively affected PDT efficacy. […] The aggregation would have been more severe in cell culture medium containing serum. Taken together, the nonspecific aggregation of the peptidesome←Pa is likely responsible for the reduced SO generation and the lack of PDT effect. The morphology of peptidesome before and after NIR irradiation was also monitored by AFM (Fig. S12). […]
(Formazan colour is commonly taken as a measure of viable cells.)

A further series concerns cells. The series can be described thus: Cytotoxicity of peptidesomes. It counts as cell-based. The conditions noted are these: single-component peptidesomes (Fig. 3a).

Turning to `C=Cc1c(C)c2cc3nc(c4c5[nH]c(cc6nc(cc1[nH]2)C(C)=C6CC)c(C)c5C(=O)[C@@H]4C(=O)OC)[C@@H](CCC(=O)O)[C@@H]3C` [Pa, Pheophorbide a], the “excised tumor weight, times larger than peptidesome←Pa (G&G)-treated group” value in the series on SCC7 tumor-bearing mice is reported as “approximately 3 times”. The “weight of the excised tumor” value in the series with SCC7 tumor-bearing mice (n = 4) was determined as 1222 mg. For the same molecule, the “cell internalization efficiency relative to peptidesome←Pa” value with SCC7 cells [1] stood at 5 fold. Further, the “amount of singlet oxygen (SO) generated, free Pa versus peptidesome←Pa” value in series [2] is recorded as “far higher”. Further, the water solubility entry in series [3] is “approximately 0.014 g/L”. Besides, the “PDT effect (cytotoxicity, MTT)” value with SCC7 cells [4] is listed as “strong dose-dependent PDT effect”.
Turning to `CCCCCCCCCCCC(=O)N[C@H]1CCCCNC(=O)[C@H](Cc2c[nH]c3ccccc23)NC(=O)CCC(=O)NCCOCCOCCNC(=O)[C@H](CCCNC(=N)N)NC(=O)[C@H](CCCNC(=N)N)NC(=O)[C@H](CCCNC(=N)N)NC(=O)[C@H](CCCNC(=N)N)NC(=O)[C@H](CCCNC(=N)N)NC(=O)[C@H](CCCNC(=N)N)NC(=O)CCC(=O)NCCOCCOCCNC(=O)[C@H](Cc2c[nH]c3ccccc23)NC1=O` [R6], the Cytotoxicity of peptidesomes result in the series with cells is listed as “highly toxic”.
